# Laboratory results published in patent publication US5591741A, “Fungicidal spiroheterocyclic derivatives” (American Cyanamid Company, priority 1993, dated 1997).
# Experiments:
# Plasmopara viticola = assay: Antisporulant activity against vine downy mildew (PVA); type: in vivo; details: vine leaves, antisporulant foliar spray, 600 ppm, 750 l/ha
# In short: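 Cabernet Sauvignon vines (~8 cm) inoculated on lower leaf surfaces with 5×10^4 zoosporangia/ml, held 24 h at 21° C high humidity then 24 h glasshouse. Infected leaves sprayed underside with 600 ppm compound in 1:1 water/acetone, 0.04% Tween 20, 750 l/ha; 96 h glasshouse, 24 h humidity. Sporulating leaf area rated versus control.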
# Phytophthora infestans = type: in vivo; details: tomato, direct protectant foliar spray
# Pyricularia oryzae = type: in vivo; details: rice seedlings, direct therapeutic foliar spray, 600 ppm, 4-5 days
# Venturia inaequalis = assay: Activity against apple scab in-vitro (VII); type: cell-based; details: 10 ppm, 10 days, 20° C., mycelial growth
# In short: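 Compound in acetone was tested at 10 ppm final in half-strength Potato Dextrose Broth inoculated with V. inaequalis mycelial fragments and spores at 5×10^4 propagules/ml. After 10 days at 20° C, mycelial growth was rated against untreated or diluent controls.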
# [1] = system: Pseudocercosporella herpotrichoides; assay: Activity against wheat eyespot in-vitro (PHI); type: cell-based; details: 10 ppm, 10 days, 20° C., mycelial growth
# In short: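 P. herpotrichoides mycelial fragments (5×10^4/ml) grown in half-strength PDB with compound at 10 ppm final, added from acetone. Incubated 10 days at 20 °C; mycelial growth rated against untreated or diluent controls.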
# Botrytis cinerea = assay: Direct protectant activity against broad bean grey mould (BCB); type: in vivo; details: direct protectant foliar spray, 600 ppm, 4 days
# In short: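 Broad bean plants (cv The Sutton, two leaf pairs) sprayed on upper leaf surfaces at 600 ppm, then inoculated 24 h later with 10^6 conidia/ml. Kept 4 days at 22 °C, high humidity; disease control rated from % leaf area with lesions against untreated or diluent controls.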
# [2] = system: Erysiphe graminis f.sp. hordei; assay: Direct protectant activity against barley powdery mildew (EGP); type: in vivo; details: direct protectant foliar spray, 8 days
# In short: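 Barley seedlings (cv Golden Promise, single-leaf stage) were foliar-sprayed, held 24 h at 18 °C/40% RH, then dusted with mildew conidia. After 8 days at 18 °C/40% RH, sporulating leaf area was scored as a rating against untreated or diluent-sprayed controls.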
# Alternaria solani = assay: Activity against tomato early blight (AS); type: in vivo; details: Table VI; tomato seedlings, contact prophylactic foliar spray, 4 days
# In short: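 Foliar contact prophylactic spray on tomato seedlings (cv Outdoor Girl, second true leaf expanded) in acetone/water 50:50 with 0.04% Tween 20; 24 h at 20° C, 40% R.H., then inoculation with 10^4 spores/ml A. solani conidia. Kept moist at 21° C; lesion cover rated 4 days post-inoculation against untreated or diluent-sprayed controls.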
# [3] = system: Erysiphe graminis f.sp. hordei; assay: Activity against barley powdery mildew, direct therapeutic (EGT); type: in vivo; details: direct therapeutic foliar spray, 600 ppm, up to 7 days
# In short: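 Barley seedlings (cv. Golden Promise, single-leaf stage) were dusted with mildew conidia one day before a therapeutic foliar spray of 600 ppm compound. Plants were kept at 18 °C and 40% humidity for up to 7 days, and sporulating leaf area was rated against untreated or diluent-sprayed controls.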
# Leptosphaeria nodorum = assay: Activity against wheat leafspot (LN); type: in vivo; details: direct therapeutic foliar spray, 600 ppm, 6-8 days
# In short: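 Wheat cv Norman at single-leaf stage spray-inoculated with 1.5×10^6 conidia/ml, held 24 h at high humidity, then sprayed therapeutically with test compound at 600 ppm. Kept 6-8 days at 22° C, 70% humidity; lesion density per leaf rated against untreated or diluent-sprayed controls.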
# Rhizoctonia solani = assay: Activity against Rhizoctonia in-vitro (RSI); type: cell-based; details: 10 ppm, 10 days, 20° C., mycelial growth
# In short: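 R. solani mycelial fragments (5×10^4/ml) in half-strength Potato Dextrose Broth with compound added from acetone to 10 ppm final. Mycelial growth assessed after 10 days at 20° C, rated against untreated or diluent control.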
Compound,disease control rating PVA (Plasmopara viticola),disease control rating PIP (Phytophthora infestans),disease control rating PO (Pyricularia oryzae),disease control rating VII (Venturia inaequalis),disease control rating PHI [1],disease control rating BCB (Botrytis cinerea),disease control rating EGP [2],disease control rating AS (Alternaria solani),disease control rating EGT [3],disease control rating LN (Leptosphaeria nodorum),disease control rating RSI (Rhizoctonia solani)
CC(C)CNC1COC2(CCC(C(C)(C)CC(C)(C)C)CC2)C1 (centres unmarked) [Compound 137],0 (less than 50% disease control),0 (less than 50% disease control),0 (less than 50% disease control),1 (about 50-80% disease control),2 (greater than 80% disease control),0 (less than 50% disease control),2 (greater than 80% disease control),0 (less than 50% disease control),2 (greater than 80% disease control),2 (greater than 80% disease control),2 (greater than 80% disease control)
"CC(C)(C)C1CCC2(CC1)CC(CCN)CO2.Cl (centres unmarked) [Compound 190, 8-t-butyl-3-aminoethyl-1-oxaspiro(4,5)decane hydrochloride]",1 (about 50-80% disease control),2 (greater than 80% disease control),0 (less than 50% disease control),0 (less than 50% disease control),0 (less than 50% disease control),0 (less than 50% disease control),1 (about 50-80% disease control),0 (less than 50% disease control),0 (less than 50% disease control),0 (less than 50% disease control),0 (less than 50% disease control)
CCCCCNC1COC2(CCC(C(C)(C)C)CC2)C1 (centres unmarked) [Compound 8],0 (less than 50% disease control),0 (less than 50% disease control),0 (less than 50% disease control),1 (about 50-80% disease control),1 (about 50-80% disease control),1 (about 50-80% disease control),2 (greater than 80% disease control),0 (less than 50% disease control),2 (greater than 80% disease control),0 (less than 50% disease control),0 (less than 50% disease control)
CC1CCN(C2COC3(CCC(C(C)(C)C4CCCCC4)CC3)C2)CC1 (centres unmarked) [Compound 141],0 (less than 50% disease control),0 (less than 50% disease control),0 (less than 50% disease control),2 (greater than 80% disease control),2 (greater than 80% disease control),0 (less than 50% disease control),2 (greater than 80% disease control),0 (less than 50% disease control),2 (greater than 80% disease control),1 (about 50-80% disease control),2 (greater than 80% disease control)
CC(C)(C)C1CCC(NC2COC3(CCC(C(C)(C)C)CC3)C2)CC1 (centres unmarked) [Compound 109],0 (less than 50% disease control),2 (greater than 80% disease control),0 (less than 50% disease control),2 (greater than 80% disease control),1 (about 50-80% disease control),2 (greater than 80% disease control),2 (greater than 80% disease control),1 (about 50-80% disease control),2 (greater than 80% disease control),0 (less than 50% disease control),1 (about 50-80% disease control)
CC(C)(C)c1ccc(NC2COC3(CCC(C(C)(C)C)CC3)C2)cc1 (centres unmarked) [Compound 24],0 (less than 50% disease control),0 (less than 50% disease control),0 (less than 50% disease control),0 (less than 50% disease control),0 (less than 50% disease control),0 (less than 50% disease control),0 (less than 50% disease control),0 (less than 50% disease control),0 (less than 50% disease control),0 (less than 50% disease control),0 (less than 50% disease control)
CC1CCCCC1NC1COC2(CCC(C(C)(C)C)CC2)C1 (centres unmarked) [Compound 87],0 (less than 50% disease control),2 (greater than 80% disease control),0 (less than 50% disease control),1 (about 50-80% disease control),0 (less than 50% disease control),0 (less than 50% disease control),2 (greater than 80% disease control),0 (less than 50% disease control),2 (greater than 80% disease control),0 (less than 50% disease control),1 (about 50-80% disease control)
CCCCCCC(C)NC1COC2(CCC(C(C)(C)C)CC2)C1 (centres unmarked) [Compound 105],0 (less than 50% disease control),0 (less than 50% disease control),0 (less than 50% disease control),2 (greater than 80% disease control),2 (greater than 80% disease control),1 (about 50-80% disease control),2 (greater than 80% disease control),0 (less than 50% disease control),2 (greater than 80% disease control),1 (about 50-80% disease control),2 (greater than 80% disease control)
CC(C)(C)C1CCC2(CC1)CC(NCc1cccnc1)CO2 (centres unmarked) [Compound 47],0 (less than 50% disease control),0 (less than 50% disease control),0 (less than 50% disease control),1 (about 50-80% disease control),0 (less than 50% disease control),0 (less than 50% disease control),2 (greater than 80% disease control),2 (greater than 80% disease control),2 (greater than 80% disease control),0 (less than 50% disease control),0 (less than 50% disease control)
CCCCCCNC1CC2(CCC(C(C)(C)C)CC2)OC1C (centres unmarked) [Compound 84],0 (less than 50% disease control),2 (greater than 80% disease control),0 (less than 50% disease control),1 (about 50-80% disease control),0 (less than 50% disease control),0 (less than 50% disease control),2 (greater than 80% disease control),0 (less than 50% disease control),2 (greater than 80% disease control),0 (less than 50% disease control),1 (about 50-80% disease control)
